EP0598011B1, “ECDYSTEROID DEPENDENT REGULATION OF GENES IN MAMMALIAN CELLS” (GENENTECH, INC., priority 1991, dated 1993)

Experiments:
Type in all cases: cell-based
G"E"Ec = molecular target: T1, G"E"Ec (UniProt P06536+P34021, G458E/S459G); assay: Induction of ERE reporter E4M-77CO by chimeric receptor G"E"Ec; conditions: cells incubated 48 hrs
T1 construct: expressed in transfected cells
Description: Figure. 6. Induction of […] (EREs) by chimeric receptors. Cells were transfected with expression plasmids encoding eiher DHR23α (EcEcEc), G"E"G or G"E"Ec and E4M-77CO, that contains 4 EREs fused to the MTV promoter. Cells were incubated for 48 hrs with or wihout (-) or with muristerone A (M) or dexamethasone (D).
I then determined if a DHR23 fusion protein could regulate genes normally responsive to estrogens.
Cells were transfected with expression plasmids encoding either DHR23α (EcEcEc), G"E"G or G"E"Ec and E4M-77CO, that contains 4 EREs fused to the MTV promoter. Cells were incubated for 48 hrs with or without (-) or with muristerone A (M) or dexamethasone (D). Reporter gene activity was determined as described above for Figure 2.

GXEc = molecular target: T2, GXEc (Drosophila melanogaster, UniProt P34021); assay: Lex-operator reporter X4C-33CO with GXEc; conditions: receptor GXEc, SD in parentheses
T2 construct: expressed in transfected cells
T2 sequence (P34021 329-878): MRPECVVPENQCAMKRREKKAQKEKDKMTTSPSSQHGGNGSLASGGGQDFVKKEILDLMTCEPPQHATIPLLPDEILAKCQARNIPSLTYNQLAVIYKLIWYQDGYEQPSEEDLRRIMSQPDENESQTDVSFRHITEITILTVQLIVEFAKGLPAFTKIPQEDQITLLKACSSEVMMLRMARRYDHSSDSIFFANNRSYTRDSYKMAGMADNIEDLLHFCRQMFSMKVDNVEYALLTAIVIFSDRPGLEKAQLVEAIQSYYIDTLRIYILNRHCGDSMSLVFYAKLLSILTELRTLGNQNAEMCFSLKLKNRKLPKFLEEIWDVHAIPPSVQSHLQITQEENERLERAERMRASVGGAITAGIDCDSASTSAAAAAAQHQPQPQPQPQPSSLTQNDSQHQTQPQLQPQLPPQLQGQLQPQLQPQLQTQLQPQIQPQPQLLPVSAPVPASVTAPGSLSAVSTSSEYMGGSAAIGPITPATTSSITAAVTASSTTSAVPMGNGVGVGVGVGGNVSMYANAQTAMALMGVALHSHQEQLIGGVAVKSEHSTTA
Description: (§1) Such fusion constructs are expected to be useful in regulating the expression of exogenous genes introduced into transgenic mammals or mammalian cells. I next determined if the DHR23α ligand-binding domain could be used to regulate the activity of a DNA-binding domain not normally expressed in mammalian cells. I constructed the chimeric gene GLxEc by replacing the sequences coding for the GR DNA-binding domain in the GGEc fusion with those encoding the DNA-binding domain of the Escherichia coli LexA repressor (J. W. Little and S. A. Hill, Proc. Natl. Acad. Sci. U.S.A. 82, 2301 [1985]) (Fig. 4). A reporter gene, X4C-33CO was constructed that contains 4 copies of a 26-bp lex operator (R. Brent and M. Ptashne, Nature 312, 612 [1984]) at position -33 of the CMV promoter. GLxEc had no effect on the expression of a OC-33CO, a reporter gene lacking the lex operator (Fig. 6B).
(§2) Illustrated in Table 2 is the transcriptional activation by receptor-LexA fusion proteins. Effector plasmids encoding the indicated receptor proteins were transfected with a reporter gene either containing (X4C-33CO) or lacking (OC-33CO) lex-operators. […] The cells were incubated either with (+) or without (-) muristerone A. The fold induction was determined as described previously; the standard deviations are shown in parenthesis.

VXEc [1] = molecular target: T3, VXEc (Drosophila melanogaster, UniProt P34021); assay: Lex-operator reporter X4C-33CO with VXEc; conditions: receptor VXEc, SD in parentheses
T3 construct: expressed in transfected cells
T3 sequence (P34021 329-878): T2 sequence (P34021 329-878)
Description: (§3) Finally, I determined if the activity of DHR23α fusion proteins could be further enhanced by inclusion of a potent viral transactivation domain. I constructed VGEc and VLxEc fusion genes by replacing a portion of the GR N-terminal activation domain in GGEc and GLxEc, respectively, with the herpes virus VP16 acidic activation domain (I. Sadowski et al., […]. 335, 563 [1988]; D. J. Cousens, R. Greaves, C. R. Coding, and P. O'Hare, EMBO J. 8, 2337 [1989]) (Fig. 4A). In transfected cells, these proteins accumulated to similar levels as derivatives lacking the VP16 activation domain (Fig. 4B). Both VGEc and VLxEc acted in an ecdysteroid-dependent fashion to induce activity of the appropriate reporter gene (Tables 1 and 2). However, the activity of VGEc and VLxEc was 5 and 10 fold greater than GGEc and GLxEc, respectively (M..A. Labow, S.B. Baim, T. Shenk, and A. J. Levine, Mol. and Cell. Biol. 10, 3343 [1990]). Thus, the DHR23α ligand-binding domain can be used to regulate the activities of viral, mammalian and bacterial DNA-binding or transactivation domains.
(§4) Illustrated in Table 2 is the transcriptional activation by receptor-LexA fusion proteins. […] The cells were incubated either with (+) or without (-) muristerone A. The fold induction was determined as described previously; the standard deviations are shown in parenthesis.

OC-33CO = assay: Reporter OC-33CO lacking lex-operators, control effector plasmid without receptor cDNA; conditions: SD in parentheses
Description: as §1, §2

VXEc [2] = molecular target: T3, VXEc; assay: Reporter OC-33CO lacking lex-operators with VXEc; conditions: receptor VXEc, SD in parentheses
Description: as §3, §4

EcEcEc = EcEcEc (Drosophila melanogaster, UniProt P34021); assay: Induction of GRE reporter G4M-77CO by EcEcEc (DHR23α) in 293 cells; parameters: To isolate the full-length DHR23α clones; expressed in transfected cells; host or cells: human 293 cells; conditions: receptor EcEcEc, normalized to hGH, SD in parentheses, 2880 min
Sequence of EcEcEc (P19793 whole entry): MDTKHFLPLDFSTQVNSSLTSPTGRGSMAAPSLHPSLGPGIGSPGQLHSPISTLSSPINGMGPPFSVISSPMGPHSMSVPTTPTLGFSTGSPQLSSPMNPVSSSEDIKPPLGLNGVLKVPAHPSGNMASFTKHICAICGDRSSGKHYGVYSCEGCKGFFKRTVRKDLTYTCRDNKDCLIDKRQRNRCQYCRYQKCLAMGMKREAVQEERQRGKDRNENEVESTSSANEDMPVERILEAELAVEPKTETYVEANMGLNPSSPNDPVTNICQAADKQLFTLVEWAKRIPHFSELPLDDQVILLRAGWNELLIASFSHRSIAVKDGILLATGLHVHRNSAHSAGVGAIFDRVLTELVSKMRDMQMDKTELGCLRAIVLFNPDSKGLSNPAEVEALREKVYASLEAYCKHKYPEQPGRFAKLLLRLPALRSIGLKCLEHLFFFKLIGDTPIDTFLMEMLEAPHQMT
Sequence of EcEcEc (P34021 whole entry): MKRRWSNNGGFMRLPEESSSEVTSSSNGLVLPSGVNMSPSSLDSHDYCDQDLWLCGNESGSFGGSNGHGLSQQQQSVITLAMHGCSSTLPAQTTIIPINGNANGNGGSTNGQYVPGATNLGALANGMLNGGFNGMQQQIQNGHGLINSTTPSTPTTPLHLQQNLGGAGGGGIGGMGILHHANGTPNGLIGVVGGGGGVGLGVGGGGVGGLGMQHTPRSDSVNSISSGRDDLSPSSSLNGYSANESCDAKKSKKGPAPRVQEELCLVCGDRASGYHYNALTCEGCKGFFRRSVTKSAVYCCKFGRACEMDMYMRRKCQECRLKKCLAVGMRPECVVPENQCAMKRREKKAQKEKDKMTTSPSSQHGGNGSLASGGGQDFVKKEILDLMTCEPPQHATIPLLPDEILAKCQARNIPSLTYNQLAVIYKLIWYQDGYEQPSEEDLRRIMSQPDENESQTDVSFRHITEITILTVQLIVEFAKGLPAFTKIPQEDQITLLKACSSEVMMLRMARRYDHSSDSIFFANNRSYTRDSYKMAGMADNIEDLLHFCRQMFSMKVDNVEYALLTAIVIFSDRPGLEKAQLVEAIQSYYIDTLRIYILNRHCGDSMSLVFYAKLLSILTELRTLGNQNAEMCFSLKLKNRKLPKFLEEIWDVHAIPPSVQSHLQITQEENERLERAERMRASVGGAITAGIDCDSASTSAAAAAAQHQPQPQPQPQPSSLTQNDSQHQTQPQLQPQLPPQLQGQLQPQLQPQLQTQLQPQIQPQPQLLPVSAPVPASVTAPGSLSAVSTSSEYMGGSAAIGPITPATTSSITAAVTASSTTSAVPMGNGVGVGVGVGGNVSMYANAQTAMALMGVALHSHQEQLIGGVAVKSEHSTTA
Description: "G" and "Ec" refer to the glucocorticoid receptor and DHR23α, respectively.
293 cells were transfected with effector plasmids encoding the indicated receptor proteins and the reporter gene G4M-77CO. These transfected cells were incubated either without added hormone (-), with muristerone A (M) or with dex (D).

T1 sequence (P19793 whole entry): as the sequence (P19793 whole entry) above
T1 sequence (P06536+P34021 fused P06536:G458E/P06536:S459G): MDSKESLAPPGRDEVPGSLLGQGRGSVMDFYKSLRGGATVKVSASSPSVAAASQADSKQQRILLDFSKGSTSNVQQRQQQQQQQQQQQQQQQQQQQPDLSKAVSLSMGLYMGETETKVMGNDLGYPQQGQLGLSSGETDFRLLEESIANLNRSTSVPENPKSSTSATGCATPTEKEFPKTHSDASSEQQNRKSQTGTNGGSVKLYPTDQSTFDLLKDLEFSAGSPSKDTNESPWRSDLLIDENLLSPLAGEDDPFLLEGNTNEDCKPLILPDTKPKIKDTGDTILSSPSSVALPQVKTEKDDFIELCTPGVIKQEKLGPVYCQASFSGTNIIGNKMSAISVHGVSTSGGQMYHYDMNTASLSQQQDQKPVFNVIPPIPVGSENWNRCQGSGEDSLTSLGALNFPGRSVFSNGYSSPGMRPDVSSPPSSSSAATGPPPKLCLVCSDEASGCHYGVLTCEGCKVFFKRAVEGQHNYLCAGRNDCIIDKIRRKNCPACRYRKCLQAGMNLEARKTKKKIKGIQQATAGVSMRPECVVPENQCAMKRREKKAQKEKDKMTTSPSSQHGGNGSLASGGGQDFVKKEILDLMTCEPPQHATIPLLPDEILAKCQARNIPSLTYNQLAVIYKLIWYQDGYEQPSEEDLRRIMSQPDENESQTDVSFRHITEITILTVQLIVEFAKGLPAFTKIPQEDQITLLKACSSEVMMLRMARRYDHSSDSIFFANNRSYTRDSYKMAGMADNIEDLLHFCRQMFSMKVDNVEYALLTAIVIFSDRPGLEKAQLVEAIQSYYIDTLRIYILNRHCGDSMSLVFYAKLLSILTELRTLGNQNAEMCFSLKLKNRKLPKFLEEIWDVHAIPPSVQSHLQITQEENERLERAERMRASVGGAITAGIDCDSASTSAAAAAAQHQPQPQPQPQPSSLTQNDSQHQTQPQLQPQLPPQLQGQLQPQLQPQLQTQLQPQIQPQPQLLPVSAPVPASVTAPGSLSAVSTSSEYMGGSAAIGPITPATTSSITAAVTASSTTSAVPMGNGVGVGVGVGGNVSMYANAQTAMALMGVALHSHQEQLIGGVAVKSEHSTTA

In the case of `CC(C)CCC(O)[C@](C)(O)[C@H]1CC[C@@]2(O)C3=CC(=O)C4(O)CC(O)C(O)C[C@]4(C)[C@H]3C(O)C[C@]12C` (stereo partly drawn) [muristerone A, 2,3,5,11,14,20,22-Heptahydroxy-7-cholesten-6-one], the “regulation of ERE containing reporter gene E4M-77CO” value (G"E"Ec) is reported as “regulates the ERE containing reporter gene E4M-77CO in a muristerone-dependent fashion”, the fold induction (GXEc) is reported as 44.3 (8.3) fold and the fold induction (VXEc [1]) is reported as 563 (61) fold. For the same molecule, the fold induction (OC-33CO) was 1.1 (0.4) fold, the fold induction (VXEc [2]) was 1.0 (0.2) fold and the fold induction (EcEcEc) was 0.9 (0.2) fold.
